In ChEMBL document CHEMBL3885861, “Open TG-GATES”:

Organism: Rattus norvegicus
Assay: Open TG-GATES - Regimen: Single
Format: toxicity, organism-based, Sprague-Dawley
Parameters: regimen Single, gender Male, age 6 weeks
Details: in vivo, po, 1000 mg/kg, route gavage, dose level High; for APTT / Bas / Eos / Fbg / Hb / Ht / Lym / MCH / MCHC / MCV / Mono / Neu / PT / Plat / RBC / Ret / WBC: tissue Blood; for KIDNEY_L / KIDNEY_R / KIDNEY_TOTAL: tissue Kidney; for LIVER: tissue Liver; for ALP / ALT / AST / CRE / DBIL / GLC / IP / K / LDH / Na / PL / RALB / TBIL / TC / TP / gamma-GTP: tissue Plasma

## Clc1ccccc1CN1CCc2sccc2C1 [TICLOPIDINE]
3 h
  TERMINAL_BW: 212.3 g
  APTT: 17.9 s
  Bas: 0.2%
  Eos: 1%
  Fbg: 220.2 mg/dL
  Hb: 13 g/dL
  Ht: 36.9%
  Lym: 73.2%
  MCH: 21.4 pg
  MCHC: 35.3%
  MCV: 60.7 fL
  Mono: 2.8%
  Neu: 22.4%
  PT: 11.8 s
  Plat: 128.4 x10_4/uL
  RBC: 609.4 x10_4/ul
  Ret: 8.6%
  WBC: 61.1 x10_2/uL
  KIDNEY_L: 0.9 g
  KIDNEY_R: 0.9 g
  KIDNEY_TOTAL: 1.9 g
  LIVER: 9 g
  ALP: 991.8 IU/L
  ALT: 36 IU/L
  AST: 71.4 IU/L
  CRE: 0.4 mg/dL
  DBIL: 0.076 mg/dL
  GLC: 196.4 mg/dL
  IP: 10.7 mg/dL
  K: 3.8 meq/L
  LDH: 147.4 IU/L
  Na: 140.4 meq/L
  PL: 122 mg/dL
  RALB: 3.3 g/dL
  TBIL: 0.1 mg/dL
  TC: 69.8 mg/dL
  TP: 5.5 g/dL
  gamma-GTP: 0.8 IU/L
6 h
  TERMINAL_BW: 211.9 g
  APTT: 19.4 s
  Bas: 0%
  Eos: 1%
  Fbg: 230.6 mg/dL
  Hb: 13.5 g/dL
  Ht: 38.4%
  Lym: 71.8%
  MCH: 21.6 pg
  MCHC: 35.1%
  MCV: 61.4 fL
  Mono: 2%
  Neu: 24.6%
  PT: 12.2 s
  Plat: 118.7 x10_4/uL
  RBC: 625.2 x10_4/ul
  Ret: 8.6%
  WBC: 69.6 x10_2/uL
  KIDNEY_L: 0.9 g
  KIDNEY_R: 0.9 g
  KIDNEY_TOTAL: 1.8 g
  LIVER: 8.7 g
  ALP: 863 IU/L
  ALT: 31 IU/L
  AST: 69 IU/L
  CRE: 0.4 mg/dL
  DBIL: 0.082 mg/dL
  GLC: 190.8 mg/dL
  IP: 9.5 mg/dL
  K: 3.8 meq/L
  LDH: 196.2 IU/L
  Na: 141.8 meq/L
  PL: 149.8 mg/dL
  RALB: 3.4 g/dL
  TBIL: 0.1 mg/dL
  TC: 91 mg/dL
  TP: 5.7 g/dL
  gamma-GTP: 1 IU/L
9 h
  TERMINAL_BW: 212.4 g
  APTT: 18.1 s
  Bas: 0.2%
  Eos: 0.6%
  Fbg: 228.8 mg/dL
  Hb: 13.6 g/dL
  Ht: 38.4%
  Lym: 79.6%
  MCH: 21.5 pg
  MCHC: 35.4%
  MCV: 60.9 fL
  Mono: 2.2%
  Neu: 16.4%
  PT: 12.4 s
  Plat: 132.4 x10_4/uL
  RBC: 629.8 x10_4/ul
  Ret: 7.3%
  WBC: 61.3 x10_2/uL
  KIDNEY_L: 1 g
  KIDNEY_R: 0.9 g
  KIDNEY_TOTAL: 1.9 g
  LIVER: 8.8 g
  ALP: 1127.2 IU/L
  ALT: 25.6 IU/L
  AST: 65.2 IU/L
  CRE: 0.4 mg/dL
  DBIL: 0.076 mg/dL
  GLC: 201.4 mg/dL
  IP: 10 mg/dL
  K: 3.8 meq/L
  LDH: 200.8 IU/L
  Na: 142.4 meq/L
  PL: 141.4 mg/dL
  RALB: 3.6 g/dL
  TBIL: 0.1 mg/dL
  TC: 74.8 mg/dL
  TP: 5.6 g/dL
  gamma-GTP: 1 IU/L
24 h
  TERMINAL_BW: 208.4 g
  APTT: 22.1 s
  Bas: 0.4%
  Eos: 1.2%
  Fbg: 209 mg/dL
  Hb: 13.9 g/dL
  Ht: 38.9%
  Lym: 80.8%
  MCH: 21.4 pg
  MCHC: 35.7%
  MCV: 59.9 fL
  Mono: 1.8%
  Neu: 15%
  PT: 13.1 s
  Plat: 129.7 x10_4/uL
  RBC: 650 x10_4/ul
  Ret: 5.9%
  WBC: 63.6 x10_2/uL
  KIDNEY_L: 1 g
  KIDNEY_R: 0.9 g
  KIDNEY_TOTAL: 1.9 g
  LIVER: 9.6 g
  ALP: 1071.8 IU/L
  ALT: 27.8 IU/L
  AST: 64.6 IU/L
  CRE: 0.5 mg/dL
  DBIL: 0.084 mg/dL
  GLC: 196.4 mg/dL
  IP: 8.8 mg/dL
  K: 3.8 meq/L
  LDH: 141 IU/L
  Na: 142 meq/L
  PL: 143 mg/dL
  RALB: 3.6 g/dL
  TBIL: 0.1 mg/dL
  TC: 86 mg/dL
  TP: 5.7 g/dL
  gamma-GTP: 1.2 IU/L
